Results as given in patent US20120058135A1, “Identification and characterization of racemases, definition of protein signatures, and a test for detecting D-amino acid and for screening molecules capable of inhibiting the activity of racemase, especially proline racemase” (Institut Pasteur, priority 2010, published 2012).
Several values for one entry are separate records, joined by “and”; a condition that tells them apart may be missing. Equal entries are not always repeated. Blank lines part the entries; values can stand above or below the compound they belong to.

Assays:
[1] = biological target: T1, D-AAO (Sus scrofa, UniProt P00371); assay: D-AAO microplate test for detection of D-amino acids; assay type: biochemical, swine; settings: raw OD
T1 construct: purchased Sigma A-5222; host or cells: swine kidney
Text: The D-AAO/HRP test described here above can also be used for this purpose with slight modifications. For that purpose, the racemase reaction step should be skipped and the microplate test should start straightforward at the II-1-2.1-2 step described above with the following remarks:
1) Standard: It should not be an equimolar mixture of D- and L-amino acid, but rather a serial dilution of D-Amino acids. The choice of amino acid is made according to the interest of the D-amino acid under investigation. The final volume in wells should be of 87 μl.
2) Negative control: It is made with the L-enantiomer of the D-amino acid under investigation. The final volume should be 87 μl.
3) Blank: It is made with 87 μl buffer*. (See paragraph II.1.1 Materials.)
4) Samples: The samples to be tested should be adjusted to pH 8.3 with buffer* and their final volumes should be of 87 μl per well.
5) Then, the procedure follows steps 3) to 6), as above.
Different L- and D-amino acids were tested, namely Tyrosine (Tyr), Valine (Val), Threonine (Thr), Glutamic acid (Glu), Lysine (Lys) and Tryptophan (Try).

[2] = biological target: native protein obtained from a soluble epimastigote fraction (proline racemase) (Trypanosoma cruzi, UniProt Q868H8); assay: Kinetic assays using the native protein from a soluble epimastigote fraction; assay type: biochemical
Text: The progress of racemization reaction was monitored polarimetrically, as previously described (13). […] Values obtained were confirmed by using the Kaleïdagraph® program and Michaelis-Menten equation. […] C.

[3] = biological target: D-AAO/HRP (Sus scrofa, UniProt P00371); assay: Interference with the D-AAO/HRP reaction; assay type: biochemical, swine
[4] = system: non-infected monkey cell cultures
[5] = biological target: T2, CsPR (Acetoanaerobium sticklandii, UniProt E3PTZ4); settings: cited from earlier work
T2 sequence (E3PTZ4 1-335): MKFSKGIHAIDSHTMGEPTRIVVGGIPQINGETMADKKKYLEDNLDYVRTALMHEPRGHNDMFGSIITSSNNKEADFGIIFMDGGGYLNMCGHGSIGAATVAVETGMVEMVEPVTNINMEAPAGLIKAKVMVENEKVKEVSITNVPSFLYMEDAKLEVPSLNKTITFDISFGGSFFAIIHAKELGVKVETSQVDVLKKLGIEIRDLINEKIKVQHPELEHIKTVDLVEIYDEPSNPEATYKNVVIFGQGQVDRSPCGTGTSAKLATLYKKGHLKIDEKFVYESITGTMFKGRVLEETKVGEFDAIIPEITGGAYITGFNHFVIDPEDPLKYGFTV

[6] = system: B cells; settings: TcPRAC inhibited by the compound; cited from earlier work

T1 sequence (P00371 whole entry): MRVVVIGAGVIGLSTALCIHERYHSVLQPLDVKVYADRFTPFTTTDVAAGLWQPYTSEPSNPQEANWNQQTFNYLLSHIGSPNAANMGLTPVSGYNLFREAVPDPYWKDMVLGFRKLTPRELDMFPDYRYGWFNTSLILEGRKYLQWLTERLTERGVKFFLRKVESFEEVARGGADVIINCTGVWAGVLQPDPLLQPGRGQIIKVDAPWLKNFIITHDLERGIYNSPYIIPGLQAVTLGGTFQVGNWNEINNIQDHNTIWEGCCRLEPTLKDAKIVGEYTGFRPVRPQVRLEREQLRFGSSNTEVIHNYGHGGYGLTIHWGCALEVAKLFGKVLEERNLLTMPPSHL
D-AAO/HRP, sequence (P00371 whole entry): as above
native protein obtained from a soluble epimastigote fraction (proline racemase), sequence (Q868H8 whole entry): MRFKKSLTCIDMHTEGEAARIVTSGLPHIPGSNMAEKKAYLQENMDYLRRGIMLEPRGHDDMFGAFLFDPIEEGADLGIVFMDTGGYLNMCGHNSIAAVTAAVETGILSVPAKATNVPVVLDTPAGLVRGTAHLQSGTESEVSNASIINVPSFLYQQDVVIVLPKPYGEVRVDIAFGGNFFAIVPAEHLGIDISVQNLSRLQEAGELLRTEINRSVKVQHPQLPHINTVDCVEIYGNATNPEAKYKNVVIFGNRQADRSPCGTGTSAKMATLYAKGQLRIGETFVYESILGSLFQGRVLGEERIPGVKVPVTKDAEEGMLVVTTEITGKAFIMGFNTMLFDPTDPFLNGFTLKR

SMILES: NCCCC[C@H](N)C(=O)O [D-Lys, Lysine]
Optical density at 490 nm after D-AAO reaction ([1]; D-enantiomers, 6.25 mM): 0.243 and 0.157

Optical density at 490 nm after D-AAO reaction ([1]; 0.05 mM): 0.173
Optical density at 490 nm after D-AAO reaction ([1]; 0.09 mM): 0.213 and 0.215
Optical density at 490 nm after D-AAO reaction ([1]; 0.19 mM): 0.308 and 0.32
Optical density at 490 nm after D-AAO reaction ([1]; 0.39 mM): 0.496 and 0.504
Optical density at 490 nm after D-AAO reaction ([1]; 0.77 mM): 0.809 and 0.824
Optical density at 490 nm after D-AAO reaction ([1]; 1.55 mM): 1.234 and 1.221
Optical density at 490 nm after D-AAO reaction ([1]; 3.09 mM): 1.716 and 1.879
Optical density at 490 nm after D-AAO reaction ([1]; 6.19 mM): 1.983 and 1.949
Optical density at 490 nm after D-AAO reaction ([1]; 12.37 mM): 1.814 and 1.976
Optical density at 490 nm after D-AAO reaction ([1]; 24.75 mM): 1.757 and 1.885
Optical density at 490 nm after D-AAO reaction ([1]; 49.5 mM): 1.961 and 2.004
SMILES: O=C(O)[C@H]1CCCN1 [D-pro, D-Proline]

SMILES: N[C@@H](Cc1c[nH]c2ccccc12)C(=O)O [D-Try, Tryptophan]
Optical density at 490 nm after D-AAO reaction ([1]; D-enantiomers, 6.25 mM): 0.615 and 0.662

Optical density at 490 nm after D-AAO reaction ([1]; L-enantiomers, 12.5 mM): 0.193 and 0.141
SMILES: N[C@@H](Cc1ccc(O)cc1)C(=O)O [L-Tyr, Tyrosine]

SMILES: N[C@@H](CCC(=O)O)C(=O)O [D-Glu, Glutamic acid]
Optical density at 490 nm after D-AAO reaction ([1]; D-enantiomers, 6.25 mM): 0.147 and 0.116

Optical density at 490 nm after D-AAO reaction ([1]; D-enantiomers, 6.25 mM): 1.317 and 0.991
SMILES: N[C@@H](Cc1ccc(O)cc1)C(=O)O [D-Tyr, Tyrosine]

SMILES: N[C@@H](Cc1c[nH]c2ccccc12)C(=O)O [L-Try, Tryptophan]
Optical density at 490 nm after D-AAO reaction ([1]; L-enantiomers, 12.5 mM): 0.131 and 0.138

SMILES: N[C@@H](CCC(=O)O)C(=O)O [L-Glu, Glutamic acid]
Optical density at 490 nm after D-AAO reaction ([1]; L-enantiomers, 12.5 mM): 0.131 and 0.141

SMILES: CC(C)[C@H](N)C(=O)O [D-Val, Valine]
Optical density at 490 nm after D-AAO reaction ([1]; D-enantiomers, 6.25 mM): 1.683 and 1.612

SMILES: NCCCC[C@H](N)C(=O)O [L-Lys, Lysine]
Optical density at 490 nm after D-AAO reaction ([1]; L-enantiomers, 12.5 mM): 0.125 and 0.131

SMILES: O=C(O)c1ccc[nH]1 [PAC, pyrrole-2-carboxylic acid]
Ki [2]: 1.15 µM
effect on D-AAO/HRP reaction [3]: does not influence DAAO/HRP reaction
interference with cellular growth [4]: do not interfere with cellular growth
Ki [5]: 18 µM
TcPRAC B cell mitogenic ability [6]: total loss of TcPRAC B cell mitogenic ability

effect on D-AAO/HRP reaction [3]: Inhibits
SMILES: O=C(O)[C@@H]1CCCN1 [L-Proline]

SMILES: CC(C)[C@H](N)C(=O)O [L-Val, Valine]
Optical density at 490 nm after D-AAO reaction ([1]; L-enantiomers, 12.5 mM): 0.135 and 0.129

Optical density at 490 nm after D-AAO reaction ([1]; D-enantiomers, 6.25 mM): 0.215 and 0.157
SMILES: C[C@@H](O)[C@H](N)C(=O)O [D-Thr, Threonine]

Optical density at 490 nm after D-AAO reaction ([1]; L-enantiomers, 12.5 mM): 0.124 and 0.128
SMILES: C[C@@H](O)[C@H](N)C(=O)O [L-Thr, Threonine]
